Consider ten molecules from paper PMC6599891 (Journal of molecular biology, 2019).

As usually defined, the Kd is the concentration at which binding is half-saturated. A high value points to weaker binding.

Where two headings read alike, the source gives them in different places.

In data set [1] the target is T1, EmrE (Escherichia coli, UniProt P23895, S64V). The experiment in a line: biochemical.
Data set [2] addresses EmrE (Escherichia coli, UniProt P23895, A59L). The experiment in a line: biochemical.
The target in data set [3] is EmrE (Escherichia coli, UniProt P23895, N102V). The experiment in a line: biochemical.
Data set [4] concerns the target EmrE (Escherichia coli, UniProt P23895, N102A). The data set is described as follows: biochemical.
Data set [5] has as its target EmrE (Escherichia coli, UniProt P23895, G90V). The experiment in a line: biochemical.
The target in data set [6] is EmrE (Escherichia coli, UniProt P23895, M21G). The data set is described as follows: biochemical.
The target in data set [7] is T1, EmrE. The data set is described as follows: biochemical. This is another data set of the same source.
For data set [8], the target named is EmrE (Escherichia coli, UniProt P23895). The experiment in a line: [3H]-TPP+ saturation binding, purified protein in DDM.
Data set [9] deals with EmrE (Escherichia coli, UniProt P23895, I101G). The data set is described as follows: biochemical.
Data set [10] concerns the molecule itself. The data set is described as follows: 1H-15N TROSY-HSQC NMR (peak doubling of the asymmetric homodimer).

In the case of `CC[P+](c1ccccc1)(c1ccccc1)c1ccccc1` [EtTPP^+], on EmrE [1], binding was characterised by a dissociation constant (Kd) of 11400 ± 100 nM.

As to `C[P+](c1ccccc1)(c1ccccc1)c1ccccc1` [MeTPP^+], the dissociation constant (Kd) at EmrE [1] stood at 60000 ± 10000 nM. Regarding `c1ccc([P+](c2ccccc2)(c2ccccc2)c2ccccc2)cc1` [TPP^+], the dissociation constant (Kd) was 23.4 ± 2.4 nM at EmrE [2]; 1.2 ± 0.2 nM at EmrE [3]; 2.3 ± 0.4 nM at EmrE [4]; 5.3 ± 0.6 nM on EmrE [5]; 4 ± 0.7 nM on EmrE [6]; 1 ± 0.6 nM at EmrE [7]. For the same molecule, the Kd at EmrE [8] was 0.8 ± 0.1 nM; on EmrE [9] it was 2.6 ± 1.3 nM.

B1: wild type EmrE (natural protein)
chain: MNPYIYLGGAILAEVIGTTLMKFSEGFTRLWPSVGTIICYCASFWLLAQTLAYIPTGIAYAIWSGVGIVLISLLSWGFFGQRLDLPAIIGMMLICAGVLIINLLSRSTPH
B1: the binding result in [10] is “binds”.

B2: EmrE N102A (natural protein)
chain: MNPYIYLGGAILAEVIGTTLMKFSEGFTRLWPSVGTIICYCASFWLLAQTLAYIPTGIAYAIWSGVGIVLISLLSWGFFGQRLDLPAIIGMMLICAGVLIIALLSRSTPH
Take B2: the binding result in data set [10] is “binds”.

B3: EmrE M21G (natural protein)
chain: MNPYIYLGGAILAEVIGTTLGKFSEGFTRLWPSVGTIICYCASFWLLAQTLAYIPTGIAYAIWSGVGIVLISLLSWGFFGQRLDLPAIIGMMLICAGVLIINLLSRSTPH
For B3, in data set [10], the binding result was “binds”.

B4: EmrE A59L (natural protein)
chain: MNPYIYLGGAILAEVIGTTLMKFSEGFTRLWPSVGTIICYCASFWLLAQTLAYIPTGILYAIWSGVGIVLISLLSWGFFGQRLDLPAIIGMMLICAGVLIINLLSRSTPH
With B4, in [10], the binding result is “binds”.

B5: EmrE N102V (natural protein)
chain: MNPYIYLGGAILAEVIGTTLMKFSEGFTRLWPSVGTIICYCASFWLLAQTLAYIPTGIAYAIWSGVGIVLISLLSWGFFGQRLDLPAIIGMMLICAGVLIIVLLSRSTPH
Regarding B5, the binding result in [10] was “binds”.

B6: EmrE I101G (natural protein)
chain: MNPYIYLGGAILAEVIGTTLMKFSEGFTRLWPSVGTIICYCASFWLLAQTLAYIPTGIAYAIWSGVGIVLISLLSWGFFGQRLDLPAIIGMMLICAGVLIGNLLSRSTPH
As for B6, in data set [10], the binding result was “binds”.

B7: S64V-EmrE (natural protein)
chain: MNPYIYLGGAILAEVIGTTLMKFSEGFTRLWPSVGTIICYCASFWLLAQTLAYIPTGIAYAIWVGVGIVLISLLSWGFFGQRLDLPAIIGMMLICAGVLIINLLSRSTPH
B7: the binding result in data set [10] is “binds”.
